# Source: ChEMBL document CHEMBL1201862, “PubChem BioAssay data set” (2004)
# Calls of active or inactive are those of the source.
# Tests used:
# [1] = target: Mu-type opioid receptor (Homo sapiens, UniProt P35372); assay type: functional, cell-based;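 also: U2OS cells with beta-arrestin recruitment to OPRM1 by beta-gal complementation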
# [2] = target: 5-hydroxytryptamine receptor 2A (Mus musculus, UniProt P35363); assay type: functional, cell-based;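 also: CHO-K1 cells with tagged receptor and beta-arrestin; agonist potency measured as compound-induced activation of the receptor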
# 5-hydroxytryptamine receptor 2A, sequence (P35363 whole entry): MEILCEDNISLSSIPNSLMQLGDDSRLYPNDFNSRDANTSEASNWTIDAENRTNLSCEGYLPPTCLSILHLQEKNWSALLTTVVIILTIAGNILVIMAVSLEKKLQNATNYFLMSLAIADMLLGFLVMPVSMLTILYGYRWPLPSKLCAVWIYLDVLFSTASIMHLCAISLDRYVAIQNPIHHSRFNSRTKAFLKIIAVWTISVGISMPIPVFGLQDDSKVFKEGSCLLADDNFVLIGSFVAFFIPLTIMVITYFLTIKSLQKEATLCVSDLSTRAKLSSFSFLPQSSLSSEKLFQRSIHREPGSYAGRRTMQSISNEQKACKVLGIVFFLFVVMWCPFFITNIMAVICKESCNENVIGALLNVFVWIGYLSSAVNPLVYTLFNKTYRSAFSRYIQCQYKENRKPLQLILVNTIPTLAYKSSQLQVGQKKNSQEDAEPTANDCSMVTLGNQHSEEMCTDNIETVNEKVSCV
# [3] = target: T1, Adenosylmethionine-8-amino-7-oxononanoate aminotransferase (Mycobacterium tuberculosis, UniProt P9WQ81); test: Mycobacterium tuberculosis BioA enzyme inhibitor Measured in Biochemical System Using Plate Reader - 2163-02_Inhibitor_Dose_CherryPick_Activity.; assay type: functional, Mycobacterium tuberculosis UT205
# T1 sequence (P9WQ81 whole entry): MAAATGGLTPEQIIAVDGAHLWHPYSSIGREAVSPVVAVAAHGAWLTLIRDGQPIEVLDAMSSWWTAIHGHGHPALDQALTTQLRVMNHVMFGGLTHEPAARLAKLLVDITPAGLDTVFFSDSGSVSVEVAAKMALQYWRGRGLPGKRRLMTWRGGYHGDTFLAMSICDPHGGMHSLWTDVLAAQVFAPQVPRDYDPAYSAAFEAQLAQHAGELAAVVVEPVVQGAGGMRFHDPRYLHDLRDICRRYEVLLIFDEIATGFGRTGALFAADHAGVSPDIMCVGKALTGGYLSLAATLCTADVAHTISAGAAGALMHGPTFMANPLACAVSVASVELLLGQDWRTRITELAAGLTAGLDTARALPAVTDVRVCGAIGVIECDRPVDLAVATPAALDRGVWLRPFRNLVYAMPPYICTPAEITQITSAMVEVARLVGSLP
# [4] = AlphaScreen signal interference compounds, dose response, artefact control for ARNT-TACC3 interaction inhibitor project, biochemical, luminescence, cherry-pick (AID 651705); assay type: functional;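 also: AlphaScreen bead proximity signal that flags compounds interfering with the detection technology; potency reflects signal decrease which marks the compound as an assay artifact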
# [5] = human group III sPLA2 inhibitors, dose response, biochemical, QFRET, IC50 (AID 743457);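 also: green fluorescence rise as the enzyme cleaves BODIPY PC-A2 in liposomes; potency for inhibition of the enzyme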
# [6] = cells; assay type: functional
# [7] = target: ATP-dependent molecular chaperone HSP82 (Candida albicans (strain WO-1) (Yeast), UniProt C4YTQ8); test: loss of DOC-induced GRE-beta-galactosidase reporter signal, dose response, Hsp90 inhibitor project, S. cerevisiae, luminescence (AID 2400); assay type: functional, cell-based;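 also: beta-galactosidase luminescence from glucocorticoid response element reporter as proxy for Hsp90 function; inhibitor potency where signal loss means Hsp90 inhibition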
# ATP-dependent molecular chaperone HSP82, sequence (C4YTQ8 whole entry): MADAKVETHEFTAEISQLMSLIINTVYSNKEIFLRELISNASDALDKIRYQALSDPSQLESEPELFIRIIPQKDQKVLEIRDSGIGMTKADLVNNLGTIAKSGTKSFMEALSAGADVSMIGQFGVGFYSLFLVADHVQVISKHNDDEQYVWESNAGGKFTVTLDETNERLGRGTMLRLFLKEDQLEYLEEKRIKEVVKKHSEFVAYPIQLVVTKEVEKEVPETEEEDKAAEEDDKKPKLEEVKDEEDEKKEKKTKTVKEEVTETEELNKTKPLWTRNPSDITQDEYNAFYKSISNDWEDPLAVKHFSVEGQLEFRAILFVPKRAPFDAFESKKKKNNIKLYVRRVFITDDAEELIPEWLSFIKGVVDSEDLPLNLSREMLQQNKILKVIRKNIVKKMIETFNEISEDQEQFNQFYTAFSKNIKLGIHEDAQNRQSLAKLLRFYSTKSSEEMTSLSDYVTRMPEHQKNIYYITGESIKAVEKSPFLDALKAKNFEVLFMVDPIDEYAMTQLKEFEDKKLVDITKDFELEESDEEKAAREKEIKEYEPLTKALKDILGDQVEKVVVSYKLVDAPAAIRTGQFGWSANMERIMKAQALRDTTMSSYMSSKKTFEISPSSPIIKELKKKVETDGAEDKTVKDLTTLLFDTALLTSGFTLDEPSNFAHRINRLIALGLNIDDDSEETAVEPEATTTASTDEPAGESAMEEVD
# [8] = C. albicans growth with fluconazole, confirmation, fluorescence, retest (AID 2467); assay type: functional, cell-based
# [9] = NIH-3T3 fibroblast cytotoxicity, dose response, cytotoxicity control, cell-based, fluorescence, Alamar Blue, secondary assay (AID 2327); assay type: functional;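 also: NIH-3T3 mouse fibroblasts cultured with fluconazole at 8 µg/mL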
# [10] = target: SWI/SNF-related matrix-associated actin-dependent regulator of chromatin subfamily A member 2 (Homo sapiens, UniProt P51531); test: Luminescence-based cell-based high throughput dose response assay to identify activators of the function of SWI/SNF related, matrix associated, actin dependent regulator of chromatin, subfamily a, member 2 (SMARCA2, BRM).; assay type: functional
# SWI/SNF-related matrix-associated actin-dependent regulator of chromatin subfamily A member 2, sequence (P51531 whole entry): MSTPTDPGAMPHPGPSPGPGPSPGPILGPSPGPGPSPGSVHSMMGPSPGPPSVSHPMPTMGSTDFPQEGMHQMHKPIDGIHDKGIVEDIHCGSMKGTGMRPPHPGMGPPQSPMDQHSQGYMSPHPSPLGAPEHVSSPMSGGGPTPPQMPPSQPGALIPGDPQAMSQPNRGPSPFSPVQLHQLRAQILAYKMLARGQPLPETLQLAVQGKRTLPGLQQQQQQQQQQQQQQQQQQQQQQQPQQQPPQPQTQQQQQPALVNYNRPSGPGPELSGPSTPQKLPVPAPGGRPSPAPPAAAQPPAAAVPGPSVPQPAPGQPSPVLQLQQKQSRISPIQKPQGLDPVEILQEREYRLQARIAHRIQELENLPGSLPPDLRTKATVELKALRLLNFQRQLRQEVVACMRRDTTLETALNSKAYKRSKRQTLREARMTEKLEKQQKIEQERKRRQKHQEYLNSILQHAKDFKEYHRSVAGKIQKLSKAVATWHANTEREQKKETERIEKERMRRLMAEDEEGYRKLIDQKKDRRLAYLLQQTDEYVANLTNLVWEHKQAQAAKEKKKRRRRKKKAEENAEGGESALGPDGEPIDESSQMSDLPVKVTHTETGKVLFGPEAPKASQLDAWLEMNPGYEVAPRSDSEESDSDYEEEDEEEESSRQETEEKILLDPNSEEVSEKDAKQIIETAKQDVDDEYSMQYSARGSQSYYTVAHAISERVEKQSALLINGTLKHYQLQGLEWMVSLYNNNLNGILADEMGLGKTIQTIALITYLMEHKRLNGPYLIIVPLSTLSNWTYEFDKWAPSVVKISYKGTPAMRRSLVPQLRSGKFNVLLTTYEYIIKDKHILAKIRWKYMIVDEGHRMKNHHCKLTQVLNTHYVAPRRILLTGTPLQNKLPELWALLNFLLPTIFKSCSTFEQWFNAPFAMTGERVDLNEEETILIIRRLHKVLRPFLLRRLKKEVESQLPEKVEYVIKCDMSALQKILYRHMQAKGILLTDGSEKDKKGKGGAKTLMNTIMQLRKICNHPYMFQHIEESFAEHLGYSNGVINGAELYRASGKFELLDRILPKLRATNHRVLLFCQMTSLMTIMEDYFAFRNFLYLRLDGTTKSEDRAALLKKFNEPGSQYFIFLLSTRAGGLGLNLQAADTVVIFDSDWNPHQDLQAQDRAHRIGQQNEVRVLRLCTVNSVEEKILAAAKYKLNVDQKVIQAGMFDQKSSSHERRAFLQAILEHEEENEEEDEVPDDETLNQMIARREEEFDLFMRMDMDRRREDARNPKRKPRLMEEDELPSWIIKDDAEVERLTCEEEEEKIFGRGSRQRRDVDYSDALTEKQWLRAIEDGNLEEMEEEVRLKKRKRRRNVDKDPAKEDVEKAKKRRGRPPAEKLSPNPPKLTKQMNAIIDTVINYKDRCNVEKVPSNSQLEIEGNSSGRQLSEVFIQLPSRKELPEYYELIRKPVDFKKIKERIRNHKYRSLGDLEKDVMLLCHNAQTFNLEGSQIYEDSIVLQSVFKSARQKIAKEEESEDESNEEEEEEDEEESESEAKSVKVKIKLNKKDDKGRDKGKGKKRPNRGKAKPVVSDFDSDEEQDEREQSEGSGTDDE
# [11] = Counterscreen for activators of the function of SWI/SNF related, matrix associated, actin dependent regulator of chromatin, subfamily a, member 2 (SMARCA2, BRM): Luminescence-based cell-based high throughput dose response assay to identify non-selective compounds using the VP16 reporter assay.; assay type: functional
# [12] = target: T2, Serine/threonine-protein phosphatase (Candida dubliniensis (strain CD36 / CBS 7987 / NCPF 3949 / NRRLY-17841) (Yeast), UniProt B9W6M3); test: calcineurin pathway inhibitors in yeast reporter, dose response, S. cerevisiae, CDRE-lacZ, luminescence, secondary (AID 2388); assay type: functional, cell-based;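 also: yeast reporter cells carrying a calcineurin-responsive lacZ construct stimulated with calcium chloride; luminescent beta-galactosidase reporter signal in whole cells rather than isolated phosphatase activity; potency for inhibition where a drop in reporter signal means calcineurin blockade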
# T2 sequence (B9W6M3 whole entry): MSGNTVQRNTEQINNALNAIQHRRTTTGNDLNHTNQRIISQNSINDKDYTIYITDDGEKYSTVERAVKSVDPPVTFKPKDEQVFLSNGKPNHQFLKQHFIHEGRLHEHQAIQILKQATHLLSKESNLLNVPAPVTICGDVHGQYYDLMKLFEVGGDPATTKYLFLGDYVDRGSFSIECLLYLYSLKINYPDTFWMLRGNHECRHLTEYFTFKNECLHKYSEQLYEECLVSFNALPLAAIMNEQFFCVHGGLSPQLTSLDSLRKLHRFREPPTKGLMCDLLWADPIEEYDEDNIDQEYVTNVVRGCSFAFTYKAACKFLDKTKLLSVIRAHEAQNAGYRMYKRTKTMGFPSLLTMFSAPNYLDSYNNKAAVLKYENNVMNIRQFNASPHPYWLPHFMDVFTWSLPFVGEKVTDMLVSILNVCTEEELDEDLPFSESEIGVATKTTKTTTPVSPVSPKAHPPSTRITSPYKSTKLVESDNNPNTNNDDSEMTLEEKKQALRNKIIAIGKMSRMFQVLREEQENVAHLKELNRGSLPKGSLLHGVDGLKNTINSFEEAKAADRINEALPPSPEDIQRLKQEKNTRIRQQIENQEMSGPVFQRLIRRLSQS
# [13] = microbe, parasite or virus in culture; assay type: functional; settings: Mycobacterium tuberculosis
# [14] = system: INS1; test: beta cell apoptosis inhibitors, cytokine rescue, dose response, luminescence, retest (AID 449756); assay type: functional, cell-based; settings: Rattus norvegicus;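 also: cell death triggered by IL-1 beta plus TNF-alpha plus IFN-gamma mixture; protective hits raise ATP signal compared with cytokine alone wells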
# [15] = ZM109 Env clade C HIV-1 fusion inhibitors, dose response, HeLa effector, CEM target cells, luciferase, cherry-pick (AID 652058); assay type: functional, cell-based
# [16] = inhibitors of HIV Env-driven cell fusion, dose response, cherry-pick (AID 652057); assay type: functional, cell-based
# [17] = CEM21 lymphoblast cell cytotoxicity, dose response, cytotoxicity control for viral fusion inhibitor project, CellTiter-Glo luminescence, cherry-picked (AID 652042); assay type: functional, cell-based;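 also: potency for signal decrease meaning cytotoxicity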
# [18] = Luminescence Cell-Based Dose Retest to Confirm Inhibitors of Cancer Stem Cells. [Related pubchem assays (depositor defined):AID2717, AID2721]; assay type: functional; settings: Homo sapiens
# [19] = inhibitors of clade B AD8 Env fusion, dose response, cell-based, cherry-pick (AID 652062); assay type: functional;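 also: luciferase signal from cell-cell fusion driven by HIV-1 clade B AD8 Env; potency is for inhibitors of fusion seen as a drop in luminescence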
# [20] = target: T3, Polyadenylate-binding protein 1 (Homo sapiens, UniProt P11940); test: PABP1 MLLE–PAM2 binding inhibitor potency, dose response, biochemical, fluorescence polarization, FITC-PAM2 peptide (AID 602259); assay type: functional; settings: read-out: IC50_Mean
# T3 sequence (P11940 whole entry): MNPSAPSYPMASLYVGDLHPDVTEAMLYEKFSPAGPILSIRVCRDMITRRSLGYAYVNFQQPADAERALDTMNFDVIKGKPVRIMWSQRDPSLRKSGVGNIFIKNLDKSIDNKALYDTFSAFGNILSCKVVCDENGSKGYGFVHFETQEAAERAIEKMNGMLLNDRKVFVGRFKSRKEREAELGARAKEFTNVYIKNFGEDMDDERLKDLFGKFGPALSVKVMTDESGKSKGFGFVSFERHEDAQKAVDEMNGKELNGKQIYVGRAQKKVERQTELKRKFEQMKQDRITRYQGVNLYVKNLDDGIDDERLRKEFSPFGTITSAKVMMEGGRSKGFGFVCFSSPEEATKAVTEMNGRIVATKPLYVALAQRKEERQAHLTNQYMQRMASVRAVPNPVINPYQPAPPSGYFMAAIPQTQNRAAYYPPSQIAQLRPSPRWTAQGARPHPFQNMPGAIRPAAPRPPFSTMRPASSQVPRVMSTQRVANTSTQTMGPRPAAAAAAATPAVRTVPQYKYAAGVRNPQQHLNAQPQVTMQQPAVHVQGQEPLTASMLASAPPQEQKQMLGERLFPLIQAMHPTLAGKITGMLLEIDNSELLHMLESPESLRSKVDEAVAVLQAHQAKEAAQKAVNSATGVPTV
# [21] = target: T3, Polyadenylate-binding protein 1; test: PABP1 MLLE–PAM2 interaction inhibitors, dose response, miRNA deadenylation inhibitor project, biochemical, fluorescence polarization, Cy5-PAM2 peptide, secondary (AID 602260); assay type: functional; settings: read-out: IC50_Mean
# [22] = target: Disintegrin and metalloproteinase domain-containing protein 17 (Homo sapiens, UniProt P78536); test: exosite inhibitors of ADAM17, dose response, biochemical (AID 743260)
# Disintegrin and metalloproteinase domain-containing protein 17, sequence (P78536 whole entry, the tested form may be a part): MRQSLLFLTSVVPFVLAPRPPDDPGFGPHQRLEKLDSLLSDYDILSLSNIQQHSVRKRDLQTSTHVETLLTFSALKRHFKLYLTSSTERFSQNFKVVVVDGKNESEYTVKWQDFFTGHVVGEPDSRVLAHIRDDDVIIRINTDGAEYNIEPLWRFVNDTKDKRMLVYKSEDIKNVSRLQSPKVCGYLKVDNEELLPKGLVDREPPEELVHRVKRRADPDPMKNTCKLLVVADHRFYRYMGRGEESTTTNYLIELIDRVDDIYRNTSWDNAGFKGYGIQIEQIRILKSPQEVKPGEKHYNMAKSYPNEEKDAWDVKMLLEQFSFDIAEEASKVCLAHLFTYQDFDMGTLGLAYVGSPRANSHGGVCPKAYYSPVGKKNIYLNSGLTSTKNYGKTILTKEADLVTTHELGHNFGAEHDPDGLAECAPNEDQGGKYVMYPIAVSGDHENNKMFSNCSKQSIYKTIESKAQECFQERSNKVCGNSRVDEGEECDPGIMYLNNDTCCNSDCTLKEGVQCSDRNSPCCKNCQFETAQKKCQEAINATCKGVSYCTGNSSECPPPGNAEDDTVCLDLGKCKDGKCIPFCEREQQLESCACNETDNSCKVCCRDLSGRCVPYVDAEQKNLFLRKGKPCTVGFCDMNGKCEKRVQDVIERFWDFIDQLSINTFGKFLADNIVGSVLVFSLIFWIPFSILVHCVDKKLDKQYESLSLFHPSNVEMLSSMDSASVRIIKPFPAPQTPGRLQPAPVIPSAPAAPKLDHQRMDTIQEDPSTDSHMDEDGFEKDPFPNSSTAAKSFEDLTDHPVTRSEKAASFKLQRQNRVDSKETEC
# [23] = target: T4, Interleukin-8 (Homo sapiens, UniProt P10145); test: Dose Response confirmation of uHTS small molecule hits for cystic fibrosis induced NFkb Inhibitors in a PAF-induced IL8 counterscreen.; assay type: functional; settings: read-out: IC50_Mean
# T4 sequence (P10145 whole entry): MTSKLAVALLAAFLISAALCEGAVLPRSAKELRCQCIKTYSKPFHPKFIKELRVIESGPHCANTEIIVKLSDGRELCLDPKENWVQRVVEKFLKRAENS
# [24] = target: T5, Oxysterols receptor LXR-beta (Homo sapiens, UniProt P55055); assay type: functional, cell-based;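 also: agonist activity at LXR measured by a cell-based luminescence readout across a dose range, run as a counterscreen for daf-12 agonists; HEK293 cells with Gal4-LXR fusion and GAL4-driven luciferase reporter; potency for activation of Gal4-LXR reporter so compounds are agonists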
# T5 sequence (P55055 whole entry): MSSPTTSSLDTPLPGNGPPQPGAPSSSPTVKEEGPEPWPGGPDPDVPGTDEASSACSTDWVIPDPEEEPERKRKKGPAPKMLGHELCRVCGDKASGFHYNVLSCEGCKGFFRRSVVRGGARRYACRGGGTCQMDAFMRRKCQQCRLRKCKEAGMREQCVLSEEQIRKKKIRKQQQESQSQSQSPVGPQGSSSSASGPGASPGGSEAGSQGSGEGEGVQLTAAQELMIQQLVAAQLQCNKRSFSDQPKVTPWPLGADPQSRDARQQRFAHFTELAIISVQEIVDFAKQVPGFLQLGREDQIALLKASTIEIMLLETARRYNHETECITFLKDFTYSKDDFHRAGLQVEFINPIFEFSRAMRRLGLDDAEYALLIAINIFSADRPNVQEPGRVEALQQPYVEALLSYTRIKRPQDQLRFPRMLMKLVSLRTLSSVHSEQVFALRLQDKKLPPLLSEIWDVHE
# [25] = non-specific cell cytotoxicity, dose response, cytotoxicity control for PAX8 inhibitor project, plate reader, dry powder samples (AID 743021); assay type: functional, cell-based
# [26] = IGROV1 ovarian cancer cell cytotoxicity, dose response, PAX8 inhibitor project, plate reader, dry powder samples (AID 743043); assay type: functional, cell-based; settings: IGROV-1
# [27] = target: Paired box protein Pax-8 (Homo sapiens, UniProt Q06710); test: inhibitors of PAX8-driven TPO luciferase reporter, dose response, RMG-I cells, cherry-pick (AID 687027); assay type: functional, cell-based;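 also: luciferase reporter driven by Pax8 target thyroperoxidase promoter measured by SteadyGlo luminescence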
# Paired box protein Pax-8, sequence (Q06710 whole entry): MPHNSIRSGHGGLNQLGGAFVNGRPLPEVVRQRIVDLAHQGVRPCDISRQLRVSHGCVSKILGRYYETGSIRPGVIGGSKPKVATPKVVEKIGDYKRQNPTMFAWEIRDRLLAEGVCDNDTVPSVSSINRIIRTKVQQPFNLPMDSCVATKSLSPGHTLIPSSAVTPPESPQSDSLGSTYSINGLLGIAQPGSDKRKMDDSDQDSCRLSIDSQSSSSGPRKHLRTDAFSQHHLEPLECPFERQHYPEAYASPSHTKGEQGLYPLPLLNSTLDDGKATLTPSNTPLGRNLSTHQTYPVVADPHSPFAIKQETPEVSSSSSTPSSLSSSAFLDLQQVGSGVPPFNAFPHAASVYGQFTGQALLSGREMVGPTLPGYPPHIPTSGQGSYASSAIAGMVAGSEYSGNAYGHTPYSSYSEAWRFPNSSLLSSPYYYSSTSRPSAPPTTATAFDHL
# [28] = cytotoxicity in OVCAR8 ovarian cancer cells, dose response, PAX8 project, cell-based, plate reader, dry powder samples (AID 743197); assay type: functional; settings: OVCAR-8
# [29] = NIH:OVCAR-3 ovarian cancer cell cytotoxicity, dose response, PAX8 inhibitor project, plate reader, dry powder samples (AID 743044); assay type: functional, cell-based
# [30] = growth suppression of PTEN-null colon cells, dose response, cell-based, HCT116 PTEN knockout (AID 1047); assay type: functional;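 also: HCT116 colon tumor cells with PTEN knocked out; cells exposed to compound for 60 hours before readout; potency for loss of cell viability measured by luminescence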
# [31] = growth suppression of beta-catenin-knockout colon cells, dose response, cell-based, HCT116, human colon tumor (AID 1045); assay type: functional;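 also: HCT116 colon tumor cells with beta catenin knocked out; cells exposed to compound for 60 hours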
# [32] = target: T6, Sentrin-specific protease 8 (Homo sapiens, UniProt Q96LD8); assay type: functional
# T6 sequence (Q96LD8 whole entry): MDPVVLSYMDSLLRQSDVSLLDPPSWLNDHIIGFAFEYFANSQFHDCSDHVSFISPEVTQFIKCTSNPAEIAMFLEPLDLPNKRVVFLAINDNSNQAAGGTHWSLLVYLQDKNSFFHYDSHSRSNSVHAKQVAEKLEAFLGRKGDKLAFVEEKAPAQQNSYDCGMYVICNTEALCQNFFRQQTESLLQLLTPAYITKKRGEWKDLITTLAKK
# [33] = target: Heat shock protein HSP 90-alpha (Homo sapiens, UniProt P07900); assay type: functional, organism-based
# [34] = target: T6, Sentrin-specific protease 8; assay type: functional; remark: listed apart in the source
# Mu-type opioid receptor, sequence (P35372 whole entry): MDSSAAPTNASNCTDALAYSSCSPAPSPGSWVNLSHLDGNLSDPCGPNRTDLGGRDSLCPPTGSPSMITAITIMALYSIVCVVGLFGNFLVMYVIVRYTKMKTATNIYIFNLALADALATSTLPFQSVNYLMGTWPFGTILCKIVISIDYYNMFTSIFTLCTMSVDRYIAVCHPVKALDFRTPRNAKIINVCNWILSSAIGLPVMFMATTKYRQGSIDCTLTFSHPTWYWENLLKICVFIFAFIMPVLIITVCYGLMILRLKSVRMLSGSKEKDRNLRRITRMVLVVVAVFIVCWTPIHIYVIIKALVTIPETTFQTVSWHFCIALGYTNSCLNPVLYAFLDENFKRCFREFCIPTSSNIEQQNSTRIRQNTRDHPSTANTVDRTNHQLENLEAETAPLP
smiles,measurement,setting,value
COc1ccc(C2/C=C\CN(C(=O)C3CCCC3)CC(=O)N2Cc2ccc(F)cc2)cc1 (stereo not drawn),EC50,[1],92.5 µM (inactive)
same,EC50,[2],76.1 µM (inactive)
CC(=O)c1ccc(C(=O)N2CCCC(CO)(Cc3ccccc3C)C2)s1 (stereo not drawn),AC50,[3],4.14 µM (active)
Cc1ccc(NC(=O)CNCc2ccccn2)cc1S(=O)(=O)N(C)C,AC50,[4],127 µM (active)
CCCCOc1ccc(CSC(=N)N)cc1Cl,IC50,[5],> 122 µM (inactive)
COc1ccccc1CN1CCN(C(=O)c2ccco2)CC1,EC50,[1],92.5 µM (inactive)
same,EC50,[2],1.99 µM (active)
Fc1ccc(-c2ccc(CNCc3ccccn3)o2)cc1Cl,IC50,[6],4.34 µM (active)
same,AC50,[4],88.6 µM (active)
CC(=O)c1sc(NC(=O)CCS(=O)(=O)c2ccccc2)nc1C,EC50,[7],> 150 µM (inactive)
same,EC50,[8],691 nM (active)
same,EC50,[9],> 150 µM (inactive)
same,EC50,[10],> 91.1 µM (inactive)
same,EC50,[11],> 91.1 µM (inactive)
same,EC50,[12],> 180 µM (inactive)
CCOC(=O)[C@@H]1[C@H]2COc3cc(OC)ccc3[C@H]2N2C(=O)N(c3ccc(C(F)(F)F)cc3)C(=O)[C@]12C,CC50,[13],13.2 µM (active)
same,AC50,[14],7.32 µM (active)
same,AC50,[15],38.8 µM (active)
same,AC50,[16],27.3 µM (active)
same,AC50,[17],27.7 µM (active)
same,AC50,[18],3.05 µM (active)
same,AC50,[19],25 µM (active)
O=C(CC1SC(=O)N(c2ccccc2)C1=O)Nc1ccccc1 (stereo not drawn),IC50,[20],> 66 µM (inactive)
same,IC50,[21],> 66 µM (inactive)
same,IC50,[22],46.7 µM (inactive)
CC1CCCN(c2ccc(C(=O)Nc3cccnc3)cc2[N+](=O)[O-])C1 (stereo not drawn),AC50,[3],1.11 µM (active)
CCOc1ccc(C(=O)CCNC(Cc2c[nH]cn2)C(=O)O)cc1 (stereo not drawn),AC50,[4],124 µM (active)
Cc1cccc(NC(S)=NNC(=O)c2nn(C)cc2Cl)c1,IC50,[5],> 122 µM (inactive)
O=C(COC(=O)c1cccc(O)c1)c1ccccc1,EC50,[10],> 91.1 µM (inactive)
same,EC50,[11],> 91.1 µM (inactive)
CCNC(=O)C1(C)CCCN(Cc2ccc(-c3ccccc3)o2)C1 (stereo not drawn),IC50,[23],> 79 µM (inactive)
CN(C)c1ccc2c(=O)c3ccccc3oc2n1,EC50,[24],> 67.6 µM (inactive)
CC(=O)N1CC[C@@H]2[C@@H](CO)N(C)c3ccc(-c4ccccc4)cc3[C@@H]21,AC50,[3],8.17 µM (active)
C[C@H](CO)N1C[C@H](C)[C@@H](CN(C)S(=O)(=O)c2cccs2)OCCCC[C@H](C)Oc2ccc(NS(=O)(=O)c3ccc(Cl)cc3)cc2C1=O,AC50,[25],54.6 µM (active)
same,AC50,[26],66.4 µM (active)
same,AC50,[27],3.86 µM (active)
same,AC50,[28],> 70 µM (inactive)
same,AC50,[29],29.4 µM (active)
C[C@@H]1CCCCO[C@H](CN(C)S(=O)(=O)c2cccs2)[C@@H](C)CN([C@@H](C)CO)C(=O)c2cc(NC(=O)Nc3ccc(C(F)(F)F)cc3)ccc2O1,AC50,[26],51.6 µM (active)
same,AC50,[27],3.48 µM (active)
CCn1c2ccccc2c2cc(/C=N/O)ccc21,IC50,[23],7.06 µM (active)
Cc1c(Cl)cccc1/N=C/c1ccc([N+](=O)[O-])s1,EC50,[30],26.5 µM (active)
same,EC50,[31],40.3 µM (active)
same,IC50,[32],3.66 µM (active)
same,AC50,[33],7.37 µM (active)
same,IC50,[34],5.17 µM (active)
O=C(c1cc2ccccc2oc1=O)N1CCOCC1,EC50,[10],> 91.2 µM (inactive)
same,EC50,[11],> 91.2 µM (inactive)
